How the values were obtained:
Assay in all cases: KINOMEscan competition binding
Conditions in all cases: compound 1.0 µM
[1] = target: ITK (human) (UniProt Q08881)
[2] = target: MAST1 (human) (UniProt Q9Y2H9)
[3] = system: EGFR (human), P00533 [P753S; 747-752 del]
[4] = target: CAMKK1 (human) (UniProt Q8N5S9)
[5] = target: LIMK1 (human) (UniProt P53667)
[6] = target: PDPK1 (human) (UniProt O15530)
[7] = target: PHKG1 (human) (UniProt Q16816)
[8] = target: NLK (human) (UniProt Q9UBE8)
[9] = target: PAK1 (human) (UniProt Q13153)
[10] = target: BMPR1A (human) (UniProt P36894)
[11] = target: CDC42BPB (human) (UniProt Q9Y5S2)
[12] = target: STK24 (human) (UniProt Q9Y6E0)
[13] = target: CSNK1G3 (human) (UniProt Q9Y6M4)
[14] = target: STK4 (human) (UniProt Q13043)
[15] = target: INSRR (human) (UniProt P14616)
[16] = target: ABL1 (human) (UniProt P00519)
[17] = target: MAPK4 (human) (UniProt P31152)
[18] = target: FLT4 (human) (UniProt P35916)
[19] = target: STK10 (human) (UniProt O94804)
[20] = target: SBK1 (human) (UniProt Q52WX2)
[21] = target: CIT (human) (UniProt O14578)
[22] = target: PRKACB (human) (UniProt P22694)
[23] = target: BMPR2 (human) (UniProt Q13873)
[24] = target: PRKD3 (human) (UniProt O94806)
[25] = target: CaMK1 (human) (UniProt Q14012)
[26] = target: MARK2 (human) (UniProt Q7KZI7)
[27] = system: EGFR (human), P00533 [746-750 del]
[28] = system: FLT3 (human), P36888 [K663Q]
[29] = system: ABL1 (human), P00519 [Q252H]
[30] = system: ABL1 (human), P00519 [T315I]
[31] = target: MYO3A (human) (UniProt Q8NEV4)
[32] = target: MAPK8 (human) (UniProt P45983)
[33] = target: PRKD1 (human) (UniProt Q15139)
[34] = target: PLK4 (human) (UniProt O00444)
[35] = target: TYK2 JH2 pseudokinase (human) (UniProt P29597)
[36] = target: PKMYT1 (human) (UniProt Q99640)
[37] = target: EPHB4 (human) (UniProt P54760)
[38] = target: IRAK3 (human) (UniProt Q9Y616)
[39] = target: BMPR1B (human) (UniProt O00238)
[40] = target: RPS6KA1 KD1 (human) (UniProt Q15418)

IRAK3 (human), sequence (Q9Y616 whole entry, looked up): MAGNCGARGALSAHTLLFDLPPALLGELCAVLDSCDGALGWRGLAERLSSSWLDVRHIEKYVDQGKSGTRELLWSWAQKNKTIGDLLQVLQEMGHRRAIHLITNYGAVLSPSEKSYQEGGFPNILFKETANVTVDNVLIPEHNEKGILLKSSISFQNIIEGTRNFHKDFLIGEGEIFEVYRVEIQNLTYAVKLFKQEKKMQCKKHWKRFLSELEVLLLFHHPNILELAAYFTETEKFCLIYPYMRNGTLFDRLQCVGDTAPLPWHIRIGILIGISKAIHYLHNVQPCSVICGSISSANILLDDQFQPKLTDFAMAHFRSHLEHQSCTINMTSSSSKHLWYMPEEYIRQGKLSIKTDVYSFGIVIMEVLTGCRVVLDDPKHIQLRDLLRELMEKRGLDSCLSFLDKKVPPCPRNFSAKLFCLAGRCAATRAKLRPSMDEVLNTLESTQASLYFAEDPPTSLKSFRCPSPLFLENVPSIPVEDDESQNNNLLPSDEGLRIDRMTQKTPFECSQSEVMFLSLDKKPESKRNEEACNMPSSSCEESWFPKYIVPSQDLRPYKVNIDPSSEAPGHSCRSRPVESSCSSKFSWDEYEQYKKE
CSNK1G3 (human), sequence (Q9Y6M4 whole entry, looked up): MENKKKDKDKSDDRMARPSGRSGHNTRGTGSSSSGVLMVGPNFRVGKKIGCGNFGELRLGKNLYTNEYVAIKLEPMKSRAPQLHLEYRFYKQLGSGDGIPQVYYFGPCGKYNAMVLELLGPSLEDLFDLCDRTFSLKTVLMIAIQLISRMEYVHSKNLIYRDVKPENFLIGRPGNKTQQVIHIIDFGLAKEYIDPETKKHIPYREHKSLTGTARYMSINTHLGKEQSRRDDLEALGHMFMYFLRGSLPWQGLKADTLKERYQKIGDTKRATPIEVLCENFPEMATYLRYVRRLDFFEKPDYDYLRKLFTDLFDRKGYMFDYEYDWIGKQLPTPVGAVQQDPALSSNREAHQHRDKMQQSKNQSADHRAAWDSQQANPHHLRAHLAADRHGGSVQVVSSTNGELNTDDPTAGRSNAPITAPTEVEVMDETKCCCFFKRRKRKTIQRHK
MARK2 (human), sequence (Q7KZI7 whole entry, looked up): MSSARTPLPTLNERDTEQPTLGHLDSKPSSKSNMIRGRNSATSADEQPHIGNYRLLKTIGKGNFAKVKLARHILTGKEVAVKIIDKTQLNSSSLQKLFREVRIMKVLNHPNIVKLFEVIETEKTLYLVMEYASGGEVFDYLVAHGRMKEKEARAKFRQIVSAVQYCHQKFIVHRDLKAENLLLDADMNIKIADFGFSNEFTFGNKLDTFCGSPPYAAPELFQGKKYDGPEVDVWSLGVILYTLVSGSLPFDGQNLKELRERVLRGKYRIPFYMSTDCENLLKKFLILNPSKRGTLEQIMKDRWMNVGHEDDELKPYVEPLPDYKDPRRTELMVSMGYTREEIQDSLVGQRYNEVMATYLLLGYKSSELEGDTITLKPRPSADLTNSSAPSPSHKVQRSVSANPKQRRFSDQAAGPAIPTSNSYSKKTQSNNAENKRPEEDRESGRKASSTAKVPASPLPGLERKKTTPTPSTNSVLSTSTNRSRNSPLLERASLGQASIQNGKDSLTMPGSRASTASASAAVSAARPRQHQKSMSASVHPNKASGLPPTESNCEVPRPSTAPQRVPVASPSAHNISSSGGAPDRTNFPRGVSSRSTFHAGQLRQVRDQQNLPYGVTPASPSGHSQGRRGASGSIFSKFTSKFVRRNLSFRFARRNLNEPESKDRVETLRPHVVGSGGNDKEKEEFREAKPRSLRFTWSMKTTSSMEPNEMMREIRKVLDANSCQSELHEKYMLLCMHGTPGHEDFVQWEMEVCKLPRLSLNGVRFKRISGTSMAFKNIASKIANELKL
MYO3A (human), sequence (Q8NEV4 whole entry, looked up): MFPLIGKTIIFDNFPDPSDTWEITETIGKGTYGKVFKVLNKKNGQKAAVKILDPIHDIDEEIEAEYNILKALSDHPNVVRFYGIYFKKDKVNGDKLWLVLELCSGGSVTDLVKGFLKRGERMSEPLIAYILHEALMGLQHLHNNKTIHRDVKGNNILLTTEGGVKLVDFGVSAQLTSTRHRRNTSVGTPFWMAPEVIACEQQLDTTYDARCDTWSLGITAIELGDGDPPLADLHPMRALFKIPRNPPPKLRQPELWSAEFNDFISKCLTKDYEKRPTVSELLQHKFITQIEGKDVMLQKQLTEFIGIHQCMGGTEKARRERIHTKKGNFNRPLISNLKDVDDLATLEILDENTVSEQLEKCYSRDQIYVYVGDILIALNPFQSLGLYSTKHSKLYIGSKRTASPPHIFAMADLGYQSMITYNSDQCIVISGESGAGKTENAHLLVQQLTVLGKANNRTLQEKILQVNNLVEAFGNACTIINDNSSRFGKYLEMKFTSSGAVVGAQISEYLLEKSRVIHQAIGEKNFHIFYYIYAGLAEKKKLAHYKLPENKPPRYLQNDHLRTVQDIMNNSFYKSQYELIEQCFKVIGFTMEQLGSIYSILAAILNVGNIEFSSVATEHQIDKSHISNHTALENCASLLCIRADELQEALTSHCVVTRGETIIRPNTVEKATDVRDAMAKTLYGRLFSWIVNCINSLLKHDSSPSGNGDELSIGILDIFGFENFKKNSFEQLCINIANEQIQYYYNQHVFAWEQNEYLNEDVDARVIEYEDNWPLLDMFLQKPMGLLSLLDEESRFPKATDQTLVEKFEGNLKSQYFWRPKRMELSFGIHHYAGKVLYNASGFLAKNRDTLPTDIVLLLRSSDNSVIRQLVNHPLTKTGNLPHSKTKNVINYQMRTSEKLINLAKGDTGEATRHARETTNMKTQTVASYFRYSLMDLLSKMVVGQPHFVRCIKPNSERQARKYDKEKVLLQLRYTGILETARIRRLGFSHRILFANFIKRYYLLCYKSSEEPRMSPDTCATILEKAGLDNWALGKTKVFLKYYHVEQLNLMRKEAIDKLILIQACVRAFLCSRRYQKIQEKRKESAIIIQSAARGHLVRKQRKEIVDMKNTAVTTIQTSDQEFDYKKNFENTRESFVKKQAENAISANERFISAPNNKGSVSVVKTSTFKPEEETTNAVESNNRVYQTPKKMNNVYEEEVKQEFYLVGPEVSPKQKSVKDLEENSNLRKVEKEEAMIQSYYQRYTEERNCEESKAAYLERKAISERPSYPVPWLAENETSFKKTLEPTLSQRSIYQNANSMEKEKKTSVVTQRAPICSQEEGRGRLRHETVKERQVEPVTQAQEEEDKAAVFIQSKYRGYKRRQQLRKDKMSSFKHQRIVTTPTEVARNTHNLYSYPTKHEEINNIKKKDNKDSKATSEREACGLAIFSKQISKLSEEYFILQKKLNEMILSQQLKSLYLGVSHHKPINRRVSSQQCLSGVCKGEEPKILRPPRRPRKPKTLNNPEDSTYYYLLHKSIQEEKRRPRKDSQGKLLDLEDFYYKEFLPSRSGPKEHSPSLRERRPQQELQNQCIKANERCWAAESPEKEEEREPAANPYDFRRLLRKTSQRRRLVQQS
MAST1 (human), sequence (Q9Y2H9 whole entry, looked up): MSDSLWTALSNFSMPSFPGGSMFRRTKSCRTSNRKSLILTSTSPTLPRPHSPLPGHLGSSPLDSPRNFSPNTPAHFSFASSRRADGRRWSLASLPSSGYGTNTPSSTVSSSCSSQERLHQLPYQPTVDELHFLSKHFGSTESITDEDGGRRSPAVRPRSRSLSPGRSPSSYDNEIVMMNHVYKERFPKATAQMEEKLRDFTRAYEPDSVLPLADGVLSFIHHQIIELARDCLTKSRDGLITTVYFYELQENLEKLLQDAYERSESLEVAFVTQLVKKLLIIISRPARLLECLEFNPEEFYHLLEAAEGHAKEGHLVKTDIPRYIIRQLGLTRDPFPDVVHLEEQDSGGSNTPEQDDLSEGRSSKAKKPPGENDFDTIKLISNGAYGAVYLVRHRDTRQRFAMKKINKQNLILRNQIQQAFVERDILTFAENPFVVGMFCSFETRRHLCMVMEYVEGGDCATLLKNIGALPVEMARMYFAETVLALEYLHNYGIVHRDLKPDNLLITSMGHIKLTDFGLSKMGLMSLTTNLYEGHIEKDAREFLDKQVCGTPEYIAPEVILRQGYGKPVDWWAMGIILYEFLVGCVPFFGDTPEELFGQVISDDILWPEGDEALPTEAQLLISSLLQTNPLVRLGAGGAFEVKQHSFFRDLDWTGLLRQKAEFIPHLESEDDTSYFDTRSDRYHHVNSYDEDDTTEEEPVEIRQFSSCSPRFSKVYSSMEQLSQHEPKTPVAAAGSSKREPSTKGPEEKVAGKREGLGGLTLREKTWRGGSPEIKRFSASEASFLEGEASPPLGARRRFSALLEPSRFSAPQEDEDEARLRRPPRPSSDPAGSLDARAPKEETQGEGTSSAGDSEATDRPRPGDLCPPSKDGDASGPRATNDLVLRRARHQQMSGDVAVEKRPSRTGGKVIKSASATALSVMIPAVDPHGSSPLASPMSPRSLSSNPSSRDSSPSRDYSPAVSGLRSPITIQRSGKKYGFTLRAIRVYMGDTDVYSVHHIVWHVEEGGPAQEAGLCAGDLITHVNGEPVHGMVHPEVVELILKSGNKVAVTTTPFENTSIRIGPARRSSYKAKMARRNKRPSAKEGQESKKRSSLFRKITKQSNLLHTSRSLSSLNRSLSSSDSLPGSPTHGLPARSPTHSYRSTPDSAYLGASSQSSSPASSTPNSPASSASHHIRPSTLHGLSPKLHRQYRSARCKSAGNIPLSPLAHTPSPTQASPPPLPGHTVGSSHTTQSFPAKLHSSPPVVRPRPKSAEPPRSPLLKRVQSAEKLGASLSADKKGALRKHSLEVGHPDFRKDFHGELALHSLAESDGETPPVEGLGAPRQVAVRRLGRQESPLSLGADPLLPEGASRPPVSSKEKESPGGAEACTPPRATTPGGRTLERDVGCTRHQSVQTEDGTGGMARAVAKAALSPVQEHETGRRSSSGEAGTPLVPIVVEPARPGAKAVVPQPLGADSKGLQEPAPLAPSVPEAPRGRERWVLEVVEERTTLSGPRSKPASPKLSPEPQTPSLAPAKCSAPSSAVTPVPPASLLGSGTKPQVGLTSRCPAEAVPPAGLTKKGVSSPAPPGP

inhibition of binding [1]: 0%
inhibition of binding [2]: 0%
inhibition of binding [3]: 1%
inhibition of binding [4]: 0%
inhibition of binding [5]: 0%
inhibition of binding [6]: 0%
inhibition of binding [7]: 11%
inhibition of binding [8]: 0%
inhibition of binding [9]: 4%
inhibition of binding [10]: 0%
inhibition of binding [11]: 0%
inhibition of binding [12]: 5%
inhibition of binding [13]: 20%
inhibition of binding [14]: 0%
inhibition of binding [15]: 0%
inhibition of binding [16]: 0%
inhibition of binding [17]: 0%
inhibition of binding [18]: 3%
inhibition of binding [19]: 4%
inhibition of binding [20]: 17%
inhibition of binding [21]: 0%
inhibition of binding [22]: 4%
inhibition of binding [23]: 0%
inhibition of binding [24]: 11%
inhibition of binding [25]: 4%
inhibition of binding [26]: 0%
inhibition of binding [27]: 0%
inhibition of binding [28]: 0%
inhibition of binding [29]: 0%
inhibition of binding [30]: 2%
inhibition of binding [31]: 7%
inhibition of binding [32]: 0%
inhibition of binding [33]: 36%
inhibition of binding [34]: 1%
inhibition of binding [35]: 12%
inhibition of binding [36]: 0%
inhibition of binding [37]: 4%
inhibition of binding [38]: 0%
inhibition of binding [39]: 0%
inhibition of binding [40]: 0%
SMILES: Nc1cc(C(F)(F)F)c(-c2cc(N3CCOCC3)nc(N3CCOCC3)n2)cn1

From the kinase profiling compilation of Christmann-Franck et al. (2016)
